Results as given in US20240165188A1, “Method for the treatment of microbial overgrowth, imbalance and infections” (TRINUTRA LTD., priority 2021, published 2024).

Test system: C. albicans (Robin) Berkhout (ATCC catalogue no. 96901), fluconazole resistant
Experiment: Disc diffusion assay, inhibition of Candida albicans growth on agar
Type: cell-based
Conditions: C. albicans fluconazole-resistant strain; undiluted (100%); 24 hours; FIG. 2
Experimental: A frozen stock of C. albicans (Robin) Berkhout (ATCC catalogue no. 96901) was thawed and incubated at 25 degrees Celsius for 72 hours in 200 YM medium. Following dilution 1:10, the culture was incubated for a further 24 hours. Following further dilution (1:10), the culture is grown for an additional 3 hours prior to use.
Antibiotic assay discs (Whatman discs, supplied by Sigma-Aldrich) were prepared in advance by means of saturating them with the test solutions and controls.
Agar plates were prepared and labelled as described in Example 1, above. The plates were then incubated at 25° C. and the area of inhibited fungal growth was measured and photographed after 24 hours.
• 1. Black seed oil 3% thymoquinone (TQ), 2% FFA. • 2. Black seed oil 3% thymoquinone (TQ), 10% FFA. • 3. Black seed oil 0.5% thymoquinone (TQ), 2% FFA. • 4. Black seed oil 0.5% thymoquinone (TQ), 10% FFA. • 5. Black seed oil 1.8% thymoquinone (TQ), 2% FFA formulation
• 6. Negative control (empty discs) • 7. Positive control I (0.05% zinc pyrithione). • 8. Positive control II (100 micrograms fluconazole)
All concentrations given above are w/w concentrations. The various black seed oil preparations were cold-pressed Nigella sativa oils obtained from NS Oils Ltd. (Kibbutz Sa'ad, Israel).
Each of the 5 test substances (at a concentration of 100%, i.e., undiluted) was assayed for antifungal activity, as described above.

OC(Cn1cncn1)(Cn1cncn1)c1ccc(F)cc1F [fluconazole]
size of the fungal inhibition zones (antifungal effect): lack of inhibitory activity
